Type in all cases: biochemical
One assay addresses T1, Aurora1 (Homo sapiens, UniProt Q96GD4).
T1 construct: His tag (N); made in house
Put plainly: Aurora1 enzymatic test, NuMA phosphorylation with [33P]ATP, Flashplate. The conditions noted are these: Aurora-B/INCENP-C3 recombinant complex, 1 μM ATP. The method, then: (§1) The inhibitory effect of compounds with respect to the kinases Aurora1 and Aurora2 is determined by means of an enzymatic test using radioactivity detection.
(§2) The kinase activity of Aurora1 and Aurora2 is evaluated via the phosphorylation of the substrate Numa-histidine in the presence of radiolabelled ATP ([^33P]ATP) using 96-well Flashplate plates in which the nickel chelate is bound to the surface of the microplate. The amount of ^33P phosphate incorporated into the NuMA substrate is proportional to the activity of the enzyme Aurora1 or Aurora2.
Aurora1: Aurora-B/INCENP-C3 recombinant complex, purified to about 50%, the N-terminal end of Aurora-B of which has been labeled with histidine.
(§3) NuMA (nuclear protein that combines with the mitotic apparatus): 424-amino acid fragment, expressed in E. coli, the N-terminal end of which has been labeled with histidine, and used as substrate for the two Aurora enzymes.
(§4) The microplates used are 96-well Flash-Plate plates, nickel chelate (Perkin-Elmer, model SMP107).
(§5) The products to be evaluated are incubated in a reaction volume of 100 μL per well, in the presence of 10 nM of Aurora1 or Aurora2, 500 nM of NuMA substrate in a buffer composed of 50 mM Tris/HCl (pH 7.5), 50 mM NaCl, 5 mM MgCl2 (Aurora-B) or 10 mM MgCl2 (Aurora-A) and 1 mM DTT, at 37° C.
(§6) 80 μL of enzyme/substrate incubation buffer are distributed in each well, followed by 10 μL of product to be evaluated, at variable concentrations. The reaction is initiated by adding 1 μM final of ATP containing 0.2 μCi of [^33P]ATP (10 μL). After incubating for 30 minutes, the reaction is quenched by simple removal of the reaction buffer and each well is washed twice with 300 μl of Tris/HCl buffer. The radioactivity is then measured in each well using a Packard, Top-Count model scintillation machine.
(§7) The control enzymatic activity of Aurora is expressed by the number of counts per minute obtained over 30 minutes after subtracting the background noise (reaction mixture containing no enzyme). The evaluation of the various test products is expressed as a percentage of inhibition of the Aurora activity relative to the control.

A further assay addresses T2, CDK2/cycline E (Homo sapiens, UniProt P24941).
T2 construct: made in house; host or cells: Sf21 insect cells (baculovirus coinfection)
Description: CDK2/cyclineE Flashplate test in 96-well format. The note with it: CDK2/cycline E complex, 1 μM ATP. The method, then:
Two recombinant baculoviruses bearing the human sequences coding, respectively, for CDK2 and cyclineE (the latter bearing a C-terminal hexahistidine tag) are used to coinfect Sf21 insect cells. Two to three days after the start of coinfection, the cells are harvested by centrifugation and then stored at −40° C. until the time of use.
A format in streptavidin-coated 96-well plates is used to test the activity of the compounds on the kinase activity of CDK2/cycline E.
To perform this test, the biotinylated peptide substrate, a fragment of the protein pRb (biotinyl-[…]-OH), is dissolved at a concentration of 1 mM in kinase buffer (HEPES/NaOH 50 mM, NaCl 1 mM, MgCl2 5 mM, pH 7.5) in order to constitute a stock solution stored at −20° C. in the form of 110 μL aliquots. On the day of the experiment, an aliquot of this solution is thawed and diluted in kinase buffer containing 1 mM of dithiothreitol, added to the buffer extemporaneously, in order to obtain a concentration of 14.3 μM. 70 μL of this solution are added to each well of the Flashplate in order to obtain a final substrate concentration of 10 μM during the enzymatic reaction performed in a final volume of the reaction medium of 100 μL (cf. below).
Intermediate dilutions of inhibitors (products of the invention) at various concentrations are prepared in DMSO from stock solutions at 10 mM in separate tubes. Dilutions at 1000 μM, 333.3 μM, 111.1 μM, 37.03 μM, 12.35 μM, 4.11 μM and 1.37 μM are thus prepared. One μL of each of these solutions (or 1 μL of DMSO for the controls) is transferred into the wells of the test plate.
19 μl of a solution of a mixture of adenosine triphosphate (ATP) and of ATPγ^33P in kinase buffer at a total concentration of 5.26 μM of ATP and 52.6 μCi/ml of ^33P are then added to each well. The enzymatic reaction is initiated by adding 10 μL per well of a 200 nM solution of CDK2/cycline E in kinase buffer containing 1 mM of dithiothreitol (or 10 μL of kinase buffer containing 1 mM of dithiothreitol for the reaction blanks).
After addition of each of the reagents, the final volume of each well is 100 μL, the final concentration of substrate is 10 μM, the final inhibitor concentrations are 10 μM, 3.33 μM, 1.11 μM, 0.37 μM, 0.123 μM, 0.041 μM and 0.014 μM (according to the concentration of the intermediate dilution), the final ATP concentration is 1 μM, the final amount of ^33P is 1 μCi/well, and the final concentration of CDK2/cycline E complex is 20 nM.
After addition of all of the reagents, the test plate is incubated at 30° C. with orbital shaking at 650 rpm.
When the incubation is complete, the plate is washed three times with 300 μL per well of PBS (phosphate-buffered saline, pH=7.4, without calcium or magnesium, reference 10010-015, Gibco BRL). The incorporation of ^33P to the peptide is quantified by scintillation counting with a Packard Topcount.NXT machine.

In another assay the target is T3, Tie2 (Homo sapiens, UniProt Q02763).
T3 construct: amino acids of the intracellular domain 776-1124; made in house; host or cells: baculovirus expression (pFastBacGT vector)
Put plainly: Tie2 kinase test, phosphorylation of PLC with GST-Tie2. The note with it: GST-Tie2 intracellular domain 776-1124. The method, then: The coding sequence of human Tie2 corresponding to the amino acids of the intracellular domain 776-1124 was generated by PCR using the cDNA isolated from a human placenta as a model. This sequence was introduced into a pFastBacGT baculovirus expression vector in the form of a GST fusion protein.
The inhibitory effect of the molecules is determined in a test of phosphorylation of PLC with Tie2 in the presence of GST-Tie2 purified to about 80% homogeneity. The substrate is composed of the SH2-SH3 fragments of PLC expressed in the form of a GST fusion protein.
The kinase activity of Tie2 is measured in a MOPS 20 mM pH 7.2 buffer, containing 10 mM MgCl2, 10 mM MnCl2, 1 mM DTT, 10 mM of glycerophosphate. In a 96-well FlashPlate plate maintained on ice, a reaction mixture is deposited, composed of 70 μL of kinase buffer containing 100 ng of enzyme GST-Tie2 per well. Next, 10 μL of the test molecule diluted in DMSO to a maximum concentration of 10% are added. For a given concentration, each measurement is performed four times. The reaction is initiated by adding 20 μL of solution containing 2 μg of GST-PLC, 2 μm of cold ATP and 1 μCi of ^33P[ATP]. After incubation for one hour at 37° C., the reaction is stopped by adding 1 volume (100 μl) of 200 mM EDTA. After removal of the incubation buffer, the wells are washed three times with 300 μL of PBS. The radioactivity is measured on a MicroBeta1450 Wallac.
The inhibition of the Tie2 activity is calculated and expressed as a percentage of inhibition relative to the control activity determined in the absence of compound.

The next assay has as its target T4, Aurora2 (Homo sapiens, UniProt O14965).
T4 construct: Aurora2: whole recombinant protein comprising an N-terminal histidine tail; His tag (N); made in house; host or cells: E. coli
T4 sequence (O14965 1-403): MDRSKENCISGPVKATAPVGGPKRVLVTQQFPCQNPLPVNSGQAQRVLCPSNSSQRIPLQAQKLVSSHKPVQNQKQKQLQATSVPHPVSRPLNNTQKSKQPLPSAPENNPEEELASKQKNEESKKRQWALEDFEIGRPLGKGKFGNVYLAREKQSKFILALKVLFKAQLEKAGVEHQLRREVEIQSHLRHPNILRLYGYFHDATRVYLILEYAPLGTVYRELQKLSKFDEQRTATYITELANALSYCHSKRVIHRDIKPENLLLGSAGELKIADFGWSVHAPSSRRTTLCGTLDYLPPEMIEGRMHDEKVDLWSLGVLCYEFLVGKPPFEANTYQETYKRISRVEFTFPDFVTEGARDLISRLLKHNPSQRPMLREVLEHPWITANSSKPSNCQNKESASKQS
Put plainly: Aurora2 enzymatic test, NuMA phosphorylation with [33P]ATP, Flashplate. The note with it: whole recombinant protein, 1 μM ATP. The method, then:
as §1, §2
Aurora2: whole recombinant protein comprising an N-terminal histidine tail, was expressed in E. coli and purified to more than 82%.
as §3, §4, §5, §6, §7

Molecules are shown by their SMILES.

T1 sequence (Q96GD4 whole entry, species assumed): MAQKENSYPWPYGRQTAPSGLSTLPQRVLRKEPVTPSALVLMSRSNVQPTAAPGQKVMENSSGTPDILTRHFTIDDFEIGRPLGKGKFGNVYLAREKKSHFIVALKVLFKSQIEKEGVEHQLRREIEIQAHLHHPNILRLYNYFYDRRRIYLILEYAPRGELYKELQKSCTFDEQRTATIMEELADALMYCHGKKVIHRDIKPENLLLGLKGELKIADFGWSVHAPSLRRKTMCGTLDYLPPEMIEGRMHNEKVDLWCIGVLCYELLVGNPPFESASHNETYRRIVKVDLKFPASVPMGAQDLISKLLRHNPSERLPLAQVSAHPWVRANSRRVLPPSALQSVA
T1 sequence (Q9NQS7 835-903 partner limits assumed, species assumed): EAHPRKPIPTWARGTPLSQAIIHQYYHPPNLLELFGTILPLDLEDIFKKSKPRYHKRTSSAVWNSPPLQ
T3 sequence (Q02763 776-1124): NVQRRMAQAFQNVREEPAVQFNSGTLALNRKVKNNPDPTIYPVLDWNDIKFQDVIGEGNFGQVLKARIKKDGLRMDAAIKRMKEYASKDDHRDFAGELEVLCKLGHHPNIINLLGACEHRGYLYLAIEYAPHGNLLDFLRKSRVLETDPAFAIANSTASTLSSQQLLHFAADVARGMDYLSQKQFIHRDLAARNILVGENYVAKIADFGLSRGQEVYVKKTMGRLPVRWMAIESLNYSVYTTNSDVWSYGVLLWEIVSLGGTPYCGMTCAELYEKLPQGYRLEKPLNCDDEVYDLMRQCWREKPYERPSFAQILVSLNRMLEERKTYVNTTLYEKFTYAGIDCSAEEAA

Turning to `CN(NC(=O)c1cc2c(NC(=O)c3ccc(CN4CCCC4)cc3)n[nH]c2s1)c1ccc(Cl)cc1` [Example 18b, N-[5-(N′-(4-chlorophenyl)-N′-methylhydrazinocarbonyl)-1H-thieno[2,3-c]pyrazol-3-yl]-4-pyrrolidin-1-ylmethylbenzamide], the IC50 (commonly the concentration that inhibits the measured activity by half) at Aurora1 stood at 287 nM; against CDK2/cycline E, 96 nM; against Tie2, 388 nM; at Aurora2 it was 50 nM.
The corresponding values for `CCN(NC(=O)c1cc2c(NC(=O)c3ccc(N4CCN(C)CC4)cc3)n[nH]c2s1)c1ccc(F)cc1` [Example 37, N-{5-[N′-ethyl-N′-(4-fluorophenyl)hydrazinocarbonyl]-1H-thieno[2,3-c]pyrazol-3-yl}-4-(4-methylpiperazin-1-yl)benzamide] are 32 nM, 54 nM, 56 nM and 20 nM.
Turning to `CN1CCCN(c2ccc(C(=O)Nc3n[nH]c4sc(C(=O)NN(C)c5ccccc5)cc34)cn2)CC1` [Example 44, 6-(4-methyl[1,4]diazepan-1-yl)-N-[5-(N′-methyl-N′-phenylhydrazinocarbonyl)-1H-thieno[2,3-c]pyrazol-3-yl]nicotinamide], the half-inhibitory concentration (IC50) was 21 nM at Aurora1, 201 nM at CDK2/cycline E, 107 nM at Tie2 and 6 nM on Aurora2.
With `CC1CN(Cc2ccc(C(=O)Nc3n[nH]c4sc(C(=O)NN(C)c5ccccc5)cc34)cc2)CC(C)N1` (stereo not shown) [Example 11a, 4-(3,5-dimethylpiperazin-1-ylmethyl)-N-[5-(N′-methyl-N′-phenylhydrazinocarbonyl)-1H-thieno[2,3-c]pyrazol-3-yl]benzamide], the concentration for half-maximal inhibition (IC50) stood at 178 nM at Aurora1, 156 nM at CDK2/cycline E, 520 nM against Tie2 and 31 nM on Aurora2.
Turning to `CN1CCN(Cc2cccc(C(=O)Nc3n[nH]c4sc(C(=O)NN(C)c5ccccc5)cc34)c2)CC1` [Example 16a, N-[5-(N′-methyl-N′-phenylhydrazinocarbonyl)-1H-thieno[2,3-c]pyrazol-3-yl]-3-(4-methylpiperazin-1-ylmethyl)-benzamide], the 50% inhibitory concentration (IC50) stood at 992 nM at Aurora1, 942 nM on CDK2/cycline E, 3210 nM against Tie2 and 301 nM at Aurora2.
`CN(NC(=O)c1cc2c(NC(=O)c3ccc(CN4CCNCC4)cc3)n[nH]c2s1)c1ccc(Cl)cc1` [Example 13b, N-{5-[N′-(4-chlorophenyl)-N′-methylhydrazinocarbonyl]-1H-thieno[2,3-c]pyrazol-3-yl}-4-piperazin-1-ylmethylbenzamide]: the IC50 on Aurora1 worked out at 182 nM; against CDK2/cycline E it was 49 nM; at Tie2 it was 324 nM; at Aurora2 it was 85 nM.
For `CN(NC(=O)c1cc2c(NC(=O)c3ccc(CN4CCNCC4)cc3)n[nH]c2s1)c1ccccc1` [Example 13a, N-[5-(N′-methyl-N′-phenylhydrazinocarbonyl)-1H-thieno[2,3-c]pyrazol-3-yl]-4-piperazin-1-ylmethylbenzamide], the IC50 amounted to 141 nM at Aurora1, 151 nM at CDK2/cycline E, 679 nM against Tie2 and 23 nM on Aurora2.
In the case of `CN1CCCN(c2ccc(C(=O)Nc3n[nH]c4sc(C(=O)NN(C)c5ccccc5)cc34)cc2)CC1` [Example 47, 4-(4-methyl[1,4]diazepan-1-yl)-N-[5-(N′-methyl-N′-phenylhydrazinocarbonyl)-1H-thieno[2,3-c]pyrazol-3-yl]benzamide], the IC50 came out at 8 nM on Aurora1, 289 nM against CDK2/cycline E and 75 nM against Tie2.
In the case of `CCN(NC(=O)c1cc2c(NC(=O)c3ccc(N4CCN(C)CC4)cc3)n[nH]c2s1)c1ccccc1` [Example 33, N-[5-(N′-ethyl-N′-phenylhydrazinocarbonyl)-1H-thieno[2,3-c]pyrazol-3-yl]-4-(4-methylpiperazin-1-yl)benzamide], the figures for the IC50 at Aurora1, against CDK2/cycline E and at Tie2 were 13 nM, 100 nM and 8 nM, respectively.

The values are drawn from US7595320B2, “Hydrazinocarbonyl-thieno[2,3-C]pyrazoles, process for preparing them, compositions containing them and use thereof” (Aventis Pharma S.A., priority 2005, dated 2009).
